Laboratory results from article PMC6120233, “Importance of Val567 on heme environment and substrate recognition of neuronal nitric oxide synthase” (FEBS Open Bio, 2018).

How the values were obtained:
[1] = target: T1, WT nNOSoxy (oxygenase domain of rat neuronal nitric oxide synthase) (Rattus norvegicus, UniProt P29476, V567T); assay: biochemical; set-up: UV-visible perturbation difference spectroscopy; displacement of heme-bound imidazole (0.5 mM), apparent dissociation constant; details: read-out: Val567Thr
T1 construct: gene Nos1; oxygenase domain, aa 1-720 plus 6-histidine tag, plasmid pCWnNOSoxy, E. coli BL21(DE3), HisTrap purification
T1 sequence (P29476 1-720 V567T): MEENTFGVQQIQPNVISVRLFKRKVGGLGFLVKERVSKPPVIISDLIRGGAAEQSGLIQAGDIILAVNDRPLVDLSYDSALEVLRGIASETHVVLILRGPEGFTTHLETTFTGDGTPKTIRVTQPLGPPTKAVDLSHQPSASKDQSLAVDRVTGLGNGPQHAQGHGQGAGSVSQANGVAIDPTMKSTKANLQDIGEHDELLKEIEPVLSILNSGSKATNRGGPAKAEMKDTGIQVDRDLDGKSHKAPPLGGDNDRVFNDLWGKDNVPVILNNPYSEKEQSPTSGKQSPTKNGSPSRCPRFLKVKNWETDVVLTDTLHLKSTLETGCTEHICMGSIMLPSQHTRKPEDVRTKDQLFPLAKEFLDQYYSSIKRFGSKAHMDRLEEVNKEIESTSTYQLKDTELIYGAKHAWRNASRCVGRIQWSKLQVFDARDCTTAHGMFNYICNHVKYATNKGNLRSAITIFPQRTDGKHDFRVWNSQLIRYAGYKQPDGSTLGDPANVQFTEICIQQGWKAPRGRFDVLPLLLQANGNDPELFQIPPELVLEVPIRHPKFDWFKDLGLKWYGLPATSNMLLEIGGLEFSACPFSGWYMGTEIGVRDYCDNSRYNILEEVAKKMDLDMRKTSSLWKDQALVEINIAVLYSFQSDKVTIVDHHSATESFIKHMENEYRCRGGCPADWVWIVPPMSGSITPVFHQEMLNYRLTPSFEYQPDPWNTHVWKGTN
Experimental: (§1) The native enzymes (~1–2 μM) were incubated 5 min at 4 °C in 50 mM HEPES buffer pH 7.4 in the presence of 0.5 mM ImH and then equally divided into reference and sample cuvettes. After 2 min at room temperature, increasing concentrations of the studied compounds were added to the sample cuvette and equivalent amounts of buffer were added to the reference cuvette. Apparent dissociation constants (K s,app) were estimated by plotting the difference in absorbance between peak (~395 nm) and valley (~430 nm) as a function of added substrate or substrate analogue concentrations and fitting the data to a hyperbolic one‐site binding model by Origin (OriginLab Corp., Northampton, MA, USA). […] Effective K s values can be deduced from the K s,app and the K s values for ImH, assuming simple competitive binding equilibrium 37.

[2] = target: T2, WT nNOSoxy (oxygenase domain of rat neuronal nitric oxide synthase) (Rattus norvegicus, UniProt P29476, V567S); assay: biochemical; set-up: UV-visible perturbation difference spectroscopy; displacement of heme-bound imidazole (0.5 mM), apparent dissociation constant; details: read-out: Val567Ser
T2 construct: gene Nos1; oxygenase domain, aa 1-720 plus 6-histidine tag, plasmid pCWnNOSoxy, E. coli BL21(DE3), HisTrap purification
T2 sequence (P29476 1-720 V567S): as the sequence (P29476 1-720 V567T) above, with T567S counted along it
Experimental: as §1

[3] = target: T3, WT nNOSoxy (oxygenase domain of rat neuronal nitric oxide synthase) (Rattus norvegicus, UniProt P29476, V567Y); assay: biochemical; set-up: UV-visible perturbation difference spectroscopy; displacement of heme-bound imidazole (0.5 mM), apparent dissociation constant; details: read-out: Val567Tyr
T3 construct: gene Nos1; oxygenase domain, aa 1-720 plus 6-histidine tag, plasmid pCWnNOSoxy, E. coli BL21(DE3), HisTrap purification
T3 sequence (P29476 1-720 V567Y): as the sequence (P29476 1-720 V567T) above, with T567Y counted along it
Experimental: as §1

[4] = target: T4, WT nNOSoxy (oxygenase domain of rat neuronal nitric oxide synthase) (Rattus norvegicus, UniProt P29476, V567R); assay: biochemical; set-up: UV-visible perturbation difference spectroscopy; displacement of heme-bound imidazole (0.5 mM), apparent dissociation constant; details: read-out: Val567Arg
T4 construct: gene Nos1; oxygenase domain, aa 1-720 plus 6-histidine tag, plasmid pCWnNOSoxy, E. coli BL21(DE3), HisTrap purification
T4 sequence (P29476 1-720 V567R): as the sequence (P29476 1-720 V567T) above, with T567R counted along it
Experimental: as §1

[5] = target: T5, WT nNOSoxy (oxygenase domain of rat neuronal nitric oxide synthase) (Rattus norvegicus, UniProt P29476, V567F); assay: biochemical; set-up: UV-visible perturbation difference spectroscopy; displacement of heme-bound imidazole (0.5 mM), apparent dissociation constant; details: read-out: Val567Phe
T5 construct: gene Nos1; oxygenase domain, aa 1-720 plus 6-histidine tag, plasmid pCWnNOSoxy, E. coli BL21(DE3), HisTrap purification
T5 sequence (P29476 1-720 V567F): as the sequence (P29476 1-720 V567T) above, with T567F counted along it
Experimental: as §1

[6] = target: T5, WT nNOSoxy (oxygenase domain of rat neuronal nitric oxide synthase); assay: UV-visible difference spectroscopy, heme-Fe(III)-imidazole complex formation; assay type: binding; details: read-out: Val567Phe
Description: (§2) UV-visible difference spectroscopy, heme-Fe(III)-imidazole complex formation on WT nNOSoxy (oxygenase domain of rat neuronal nitric oxide synthase)

[7] = target: T6, WT nNOSoxy (oxygenase domain of rat neuronal nitric oxide synthase) (Rattus norvegicus, UniProt P29476); assay: as above; assay type: binding
T6 construct: gene Nos1; oxygenase domain, aa 1-720 plus 6-histidine tag, plasmid pCWnNOSoxy, E. coli BL21(DE3), HisTrap purification
T6 sequence (P29476 1-720): as the sequence (P29476 1-720 V567T) above, with T567V counted along it
Description: as §2

[8] = target: T2, WT nNOSoxy (oxygenase domain of rat neuronal nitric oxide synthase); assay: as above; assay type: binding; details: read-out: Val567Ser
Description: as §2

[9] = target: T4, WT nNOSoxy (oxygenase domain of rat neuronal nitric oxide synthase); assay: as above; assay type: binding; details: read-out: Val567Arg
Description: as §2

[10] = target: T3, WT nNOSoxy (oxygenase domain of rat neuronal nitric oxide synthase); assay: as above; assay type: binding; details: read-out: Val567Tyr
Description: as §2

[11] = target: T1, WT nNOSoxy (oxygenase domain of rat neuronal nitric oxide synthase); assay: as above; assay type: binding; details: read-out: Val567Thr

| Kd [1] [µM] | Kd [2] [µM] | Kd [3] [µM] | SMILES | other results |
| --- | --- | --- | --- | --- |
| 267 ± 63 | 122 ± 8 | 295 ± 16 | CCCNC(=N)N [compound 5, n-Propyl-guanidine] | – |
| 20.2 ± 3.9 | 21.6 ± 3.9 | 24.3 ± 1.4 | N=C(N)NC1CC1 [compound 8, Cyclopropyl-guanidine] | Kd [4]: 237 ± 85 µM |
| 99 ± 19 | 34.2 ± 4.2 | 147 ± 43 | CC(C)NC(=N)N [compound 9, Isopropyl-guanidine] | Kd [5]: 293 ± 34 µM; Kd [4]: > 500 µM |

Continued, compound first:

| SMILES | Kd [1] [µM] | Kd [2] [µM] | Kd [3] [µM] | other results |
| --- | --- | --- | --- | --- |
| CCCCNC(=N)N [compound 6, n-Butyl-guanidine] | 23 ± 5.6 | 322 ± 31 | – | – |
| N=C(N)Nc1ccc(F)cc1 [compound 11, 4-fluorophenyl-guanidine] | – | 2.2 ± 0.4 | – | Kd [5]: 165 ± 87 µM |
| COc1ccc(NC(=N)N)cc1 [compound 12, 4-methoxyphenyl-guanidine] | 189 ± 63 | 7.8 ± 1.2 | – | – |
| c1c[nH]cn1 [imidazole] | – | – | – | Kd [6]: 152 ± 26 µM; Kd [7]: 76.3 ± 5.4 µM; Kd [8]: 140 ± 16 µM; Kd [9]: 262 ± 77 µM; Kd [10]: 11.1 ± 3 µM; Kd [11]: 93 ± 24.7 µM |
